Ki data for 1 compound are collected here from patent US9574189B2, “Enzymatic encoding methods for efficient synthesis of large libraries” (Nuevolution A/S, priority 2005, dated 2017).

The target in this assay is T1, human alpha-thrombin (Homo sapiens, UniProt P00734).
T1 construct: purchased Heamatologic Technologies Inc
The assay is described as follows: Ki of released display molecule against thrombin, chromogenic substrate S-2238. It is filed as biochemical. Conditions: display molecule released by UV cleavage; 5 min incubation at 22° C.; nonlinear regression of Vmax; 95% confidence interval 0-13 nM. The method, then:
To determine the Ki of the released display molecule against the protease thrombin, human alpha-thrombin (Heamatologic Technologies Inc.) was diluted in buffer (0.015 units/μl) and the released display molecule was added. Following 5 minutes of incubation at 22° C. a chromogenic substrate (Chromogenix catalogue number S-2238) was added and the maximum turnover (Vmax) of the enzyme was determined in a by measuring the change in absorbance at 405 nm using a Versamax reader (Molecular Devices). This was repeated for different concentrations of the released display molecule and different concentrations of substrate. The Vmax values obtained were then fitted using nonlinear regression implemented in the Prism software (Graphpad) to obtain the Ki of the display molecule.

One may read the Ki as the dissociation constant of the complex between target and ligand, obtained from inhibition or displacement. As to `NC(=O)COc1ccc(Cl)cc1CNC(=O)[C@H]1CCCN1C(=O)[C@@H](N)C1CCCCC1`, the Ki was determined as 5.2 nM.
